Results: PubChem BioAssay (NCI)
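These data come from cells grown in 96-well plates and exposed to compound for 48 hours at five concentrations. TGI: total growth inhibition.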

How the values were obtained:
Assay in all cases: inhibition of tumour cell growth, NCI panel, 48 h
786-0 renal = system: 786-0 renal
COLO 205 colon = system: COLO 205 colon
HL-60(TB) leukemia = system: HL-60(TB) leukemia
HOP-62 NSCLC = system: HOP-62 NSCLC
MDA-MB-435 = system: MDA-MB-435
NCI-H226 lung = system: NCI-H226 lung
NCI-H522 lung = system: NCI-H522 lung
OVCAR-3 ovarian = system: OVCAR-3 ovarian
OVCAR-5 ovarian = system: OVCAR-5 ovarian
OVCAR-8 ovarian = system: OVCAR-8 ovarian
PC-3 prostate = system: PC-3 prostate
SK-MEL-2 melanoma = system: SK-MEL-2 melanoma
SK-OV-3 ovarian = system: SK-OV-3 ovarian
SN12C renal = system: SN12C renal
SNB-19 CNS = system: SNB-19 CNS
SR leukemia = system: SR leukemia
SW-620 colon = system: SW-620 colon
UO-31 renal = system: UO-31 renal
CCRF-CEM leukemia = system: CCRF-CEM leukemia

Row | SMILES | TGI (786-0 renal) | TGI (COLO 205 colon) | TGI (HL-60(TB) leukemia) | TGI (HOP-62 NSCLC) | TGI (MDA-MB-435) | TGI (NCI-H226 lung) | TGI (NCI-H522 lung) | TGI (OVCAR-3 ovarian) | TGI (OVCAR-5 ovarian) | TGI (OVCAR-8 ovarian) | TGI (PC-3 prostate) | TGI (SK-MEL-2 melanoma) | TGI (SK-OV-3 ovarian) | TGI (SN12C renal) | TGI (SNB-19 CNS) | TGI (SR leukemia) | TGI (SW-620 colon) | TGI (UO-31 renal) | TGI (CCRF-CEM leukemia)
1 | COc1cc2c(cc1OCCCCCCCCCCN1C(=O)c3cccc4cccc(c34)C1=O)N=C[C@@H]1CCCN1C2=O | 55.9 µM | 15.9 µM | 43.2 µM | > 100 µM | 18.8 µM | 5.25 µM | 28.9 µM | 20.3 µM | 61.2 µM | 24.7 µM | 12.3 µM | 20.3 µM | 19.8 µM | 18.3 µM | 57.6 µM | 3.84 µM | 19 µM | 28.5 µM | –
2 | CN(/N=C/c1ccc(C(=O)O)cc1)C1=NCCCCN1 | > 100 µM | > 100 µM | > 100 µM | > 100 µM | > 100 µM | > 100 µM | > 100 µM | > 100 µM | > 100 µM | > 100 µM | > 100 µM | – | > 100 µM | > 100 µM | > 100 µM | > 100 µM | – | > 100 µM | > 100 µM
3 | O=C(O)CO[C@@]12C#C/C=C\C#C[C@@H]3N(C(=O)Oc4ccccc4)c4ccccc4[C@]14O[C@@]34CCC2 | > 100 µM | 46.8 µM | > 100 µM | > 100 µM | 6.29 µM | > 100 µM | 85.9 µM | > 100 µM | – | > 100 µM | > 100 µM | 32.2 µM | 19.9 µM | > 100 µM | > 100 µM | > 100 µM | > 100 µM | 90 µM | > 100 µM
4 | C/C(=N\NS(=O)(=O)c1ccc(C)cc1)c1ccccn1 | > 100 µM | 93.5 µM | 73.3 µM | > 100 µM | > 100 µM | > 100 µM | – | > 100 µM | > 100 µM | > 100 µM | > 100 µM | > 100 µM | > 100 µM | – | > 100 µM | > 100 µM | > 100 µM | > 100 µM | 78.9 µM
5 | CC(C)NC(=O)OCc1c2c(n(C)c1COC(=O)NC(C)C)-c1cc(Cl)c(Cl)cc1CC2 | > 100 µM | 73.6 µM | – | > 100 µM | > 100 µM | > 100 µM | – | 82.8 µM | > 100 µM | > 100 µM | > 100 µM | 72.8 µM | > 100 µM | > 100 µM | > 100 µM | > 100 µM | > 100 µM | > 100 µM | 65.6 µM
6 | CCCCC1(NN=C2CCCCC2)C(=O)N(c2ccccc2)N(c2ccccc2)C1=O | > 100 µM | > 100 µM | 38.4 µM | > 100 µM | > 100 µM | – | > 100 µM | > 100 µM | – | > 100 µM | > 100 µM | – | > 100 µM | > 100 µM | > 100 µM | 32.2 µM | > 100 µM | > 100 µM | 40.7 µM
7 | Cc1ccc(C(=O)O)c(/C=C2\Cc3ccc(C)cc3C2=O)c1 | > 100 µM | > 100 µM | 98.6 µM | > 100 µM | > 100 µM | 85.2 µM | > 100 µM | > 100 µM | > 100 µM | > 100 µM | > 100 µM | > 100 µM | – | > 100 µM | > 100 µM | > 100 µM | > 100 µM | > 100 µM | > 100 µM
8 | Cc1ccc(C2(O)CSC(=NC34CC5CC(CC(C5)C3)C4)N2C(P(=O)(O)O)P(=O)(O)O)cc1 (centres undefined) | > 100 µM | > 100 µM | > 100 µM | > 100 µM | > 100 µM | > 100 µM | – | > 100 µM | > 100 µM | > 100 µM | > 100 µM | > 100 µM | > 100 µM | > 100 µM | > 100 µM | > 100 µM | > 100 µM | > 100 µM | –
9 | CC(C)CCNC(=O)c1ccc(CNC(=O)/C=C/c2cccc(Oc3ccccc3)c2)cc1 | 69.3 µM | > 100 µM | – | 53.3 µM | 41.6 µM | > 100 µM | > 100 µM | 93 µM | > 100 µM | > 100 µM | > 100 µM | 72.5 µM | 98.3 µM | > 100 µM | > 100 µM | > 100 µM | > 100 µM | > 100 µM | –
10 | S=C(N/N=C/c1ccccn1)N1CCCCC1 | 7.08 µM | > 100 µM | 0.264 µM | – | > 100 µM | 6.97 µM | 25.7 µM | 26.4 µM | > 100 µM | > 65.6 µM | > 100 µM | 18.1 µM | > 38.8 µM | 1.96 µM | > 100 µM | 0.217 µM | > 100 µM | 15.2 µM | –
11 | O=c1[nH]c2cc(C(F)(F)F)ccc2nc1C(F)(F)F | > 100 µM | > 100 µM | – | 76.7 µM | 85.2 µM | > 100 µM | 99.1 µM | 58 µM | > 100 µM | > 100 µM | 97.2 µM | 79.3 µM | > 100 µM | > 100 µM | > 100 µM | > 100 µM | > 100 µM | > 100 µM | > 100 µM
12 | Cc1cc(C)c2c(=O)cc(-c3cccc4ccccc34)[nH]c2n1 | > 100 µM | 2.03 µM | 0.734 µM | > 100 µM | 0.513 µM | 79.1 µM | – | – | > 100 µM | 7.38 µM | > 100 µM | – | > 42 µM | > 100 µM | > 51.8 µM | > 100 µM | > 88.8 µM | > 100 µM | > 100 µM
13 | COc1c(=O)cc2cc[nH]c3cc[nH]c1c23 | > 100 µM | > 100 µM | > 100 µM | – | > 100 µM | > 100 µM | 12.1 µM | 47.8 µM | > 100 µM | > 100 µM | > 100 µM | > 100 µM | > 100 µM | > 100 µM | > 100 µM | > 100 µM | > 100 µM | > 100 µM | > 100 µM
